{"source": "patent US9492471B2", "about": "“Methods of treating a disease or disorder associated with Bruton'S Tyrosine Kinase” (Celgene Avilomics Research, Inc., priority 2013, dated 2016)", "assay_in_all_cases": "HotSpot kinase profiling", "assay_type_in_all_cases": "biochemical", "key": {"TNK1": {"biological_target": "T1, TNK1 (Homo sapiens, UniProt Q13470)", "T1 construct": "purchased Reaction Biology Corp", "T1 sequence (Q13470 1-666)": "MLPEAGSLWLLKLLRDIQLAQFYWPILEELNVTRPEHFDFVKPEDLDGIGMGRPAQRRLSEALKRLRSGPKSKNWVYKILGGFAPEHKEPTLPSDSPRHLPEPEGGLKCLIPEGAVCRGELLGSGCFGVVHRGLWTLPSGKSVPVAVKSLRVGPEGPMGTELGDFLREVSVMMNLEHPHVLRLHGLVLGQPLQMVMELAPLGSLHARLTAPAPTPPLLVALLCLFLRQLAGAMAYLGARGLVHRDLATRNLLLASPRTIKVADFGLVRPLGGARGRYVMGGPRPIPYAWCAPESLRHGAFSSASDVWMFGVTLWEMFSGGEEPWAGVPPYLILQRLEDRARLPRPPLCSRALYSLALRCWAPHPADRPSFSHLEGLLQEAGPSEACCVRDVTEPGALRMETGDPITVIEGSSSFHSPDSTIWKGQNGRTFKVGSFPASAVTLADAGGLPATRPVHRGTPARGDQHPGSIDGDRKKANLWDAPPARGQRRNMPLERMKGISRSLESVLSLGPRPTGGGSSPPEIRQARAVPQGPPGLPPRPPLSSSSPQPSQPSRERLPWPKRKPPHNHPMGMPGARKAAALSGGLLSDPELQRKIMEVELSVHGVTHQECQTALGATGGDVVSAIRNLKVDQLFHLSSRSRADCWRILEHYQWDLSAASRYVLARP", "in_short": "(§1)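 Percent inhibition, averaged when run more than once and referenced to a DMSO negative control, came from a radioactive filter-binding readout on P81 paper. Reactions of kinase with freshly made substrate and cofactors ran for 2 h at room temperature.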"}, "DCAMKL2": {"biological_target": "T2, DCAMKL2 (Homo sapiens, UniProt Q8N568)", "T2 construct": "purchased Reaction Biology Corp", "T2 sequence (Q8N568 1-766)": "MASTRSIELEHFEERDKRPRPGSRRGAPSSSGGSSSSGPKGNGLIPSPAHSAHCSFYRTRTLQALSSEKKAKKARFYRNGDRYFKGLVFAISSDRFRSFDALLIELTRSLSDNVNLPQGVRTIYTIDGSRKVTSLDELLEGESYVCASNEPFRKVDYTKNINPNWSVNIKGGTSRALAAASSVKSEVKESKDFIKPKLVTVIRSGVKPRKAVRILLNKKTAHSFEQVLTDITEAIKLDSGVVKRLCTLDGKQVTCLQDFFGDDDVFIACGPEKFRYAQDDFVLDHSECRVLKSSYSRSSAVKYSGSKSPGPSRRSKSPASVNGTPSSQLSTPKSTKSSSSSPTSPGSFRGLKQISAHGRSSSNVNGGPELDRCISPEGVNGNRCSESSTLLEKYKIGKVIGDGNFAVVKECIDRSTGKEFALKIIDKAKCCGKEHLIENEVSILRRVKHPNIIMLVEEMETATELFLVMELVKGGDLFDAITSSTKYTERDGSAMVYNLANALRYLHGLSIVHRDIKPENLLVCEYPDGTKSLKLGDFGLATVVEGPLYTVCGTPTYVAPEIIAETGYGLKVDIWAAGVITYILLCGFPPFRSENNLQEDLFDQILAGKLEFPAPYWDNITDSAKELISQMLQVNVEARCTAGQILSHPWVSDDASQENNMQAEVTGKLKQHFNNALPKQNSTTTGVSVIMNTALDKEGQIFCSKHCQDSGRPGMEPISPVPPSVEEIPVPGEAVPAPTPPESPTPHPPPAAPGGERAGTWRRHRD", "in_short": "as §1"}, "TLK2": {"biological_target": "T3, TLK2 (Homo sapiens, UniProt Q86UE8)", "T3 construct": "purchased Reaction Biology Corp", "T3 sequence (Q86UE8 whole entry)": "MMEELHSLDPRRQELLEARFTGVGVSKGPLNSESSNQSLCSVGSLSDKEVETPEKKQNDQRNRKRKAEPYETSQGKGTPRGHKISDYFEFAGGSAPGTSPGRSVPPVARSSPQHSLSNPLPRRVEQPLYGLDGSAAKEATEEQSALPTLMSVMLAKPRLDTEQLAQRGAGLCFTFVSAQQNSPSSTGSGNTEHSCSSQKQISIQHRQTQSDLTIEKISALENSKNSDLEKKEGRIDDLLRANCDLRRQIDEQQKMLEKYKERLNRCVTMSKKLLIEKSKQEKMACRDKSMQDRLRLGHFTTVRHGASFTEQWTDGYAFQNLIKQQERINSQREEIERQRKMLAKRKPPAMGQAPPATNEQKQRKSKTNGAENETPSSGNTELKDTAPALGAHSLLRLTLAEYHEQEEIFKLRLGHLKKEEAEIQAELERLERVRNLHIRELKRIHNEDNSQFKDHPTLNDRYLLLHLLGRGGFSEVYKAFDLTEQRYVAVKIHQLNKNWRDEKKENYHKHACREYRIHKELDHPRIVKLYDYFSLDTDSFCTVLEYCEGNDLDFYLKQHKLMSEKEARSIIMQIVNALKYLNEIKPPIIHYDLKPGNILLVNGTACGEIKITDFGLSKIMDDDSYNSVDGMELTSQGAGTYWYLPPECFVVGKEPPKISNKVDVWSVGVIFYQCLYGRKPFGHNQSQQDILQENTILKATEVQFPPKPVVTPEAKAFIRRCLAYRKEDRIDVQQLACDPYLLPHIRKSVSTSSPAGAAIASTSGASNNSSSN", "in_short": "as §1"}, "[1]": {"conditions": "read-out: % Enzyme Activity (relative to DMSO controls) Run 1"}, "[2]": {"conditions": "read-out: % Enzyme Activity (relative to DMSO controls) Run 2"}}, "note": "Where two headings read alike, the source gives them in different places."}
{"smiles": "C=CC(=O)Nc1cccc(Nc2nc(Nc3ccc(OCCOC)c(F)c3)ncc2F)c1", "note": "[Compound 2]", "values": [{"measurement": "inhibition at 3 µM", "setting": "TNK1", "result": 83.7, "unit": "%"}, {"measurement": "remaining activity at 3 µM", "setting": "TNK1; [1]", "result": 15.9, "unit": "%"}, {"measurement": "remaining activity at 3 µM", "setting": "TNK1; [2]", "result": 16.6, "unit": "%"}, {"measurement": "inhibition at 3 µM", "setting": "DCAMKL2", "result": 0.18, "unit": "%"}, {"measurement": "remaining activity at 3 µM", "setting": "DCAMKL2; [1]", "result": 100, "unit": "%"}, {"measurement": "remaining activity at 3 µM", "setting": "DCAMKL2; [2]", "result": 99.5, "unit": "%"}, {"measurement": "inhibition at 3 µM", "setting": "TLK2", "result": -6.32, "unit": "%"}, {"measurement": "remaining activity at 3 µM", "setting": "TLK2; [1]", "result": 108, "unit": "%"}, {"measurement": "remaining activity at 3 µM", "setting": "TLK2; [2]", "result": 105, "unit": "%"}]}
